# Test results: ChEMBL document CHEMBL1143028, “Preparation of cyclic 2',3'-carbamate derivatives of erythromycin macrolide antibiotics” (Bioorg Med Chem, 2007)
# Active and inactive are the calls of the source. No cut-off for these calls is given here.
# Columns and labels:
# [1] = tested on: Staphylococcus aureus; assay: Antibacterial activity against Staphylococcus aureus ATCC 25923 at […]; format: functional, organism-based
# [2] = tested on: Escherichia coli; assay: Antibacterial activity against Escherichia coli ATCC 25922 at […]; format: functional, organism-based
Structure (SMILES),Activity [1],Activity [2]
CC[C@H]1OC(=O)[C@H](C)C(=O)[C@H](C)[C@@H](O[C@@H]2O[C@H](C)C[C@H]3[C@H]2OC(=O)N3C)[C@](C)(OC)C[C@@H](C)C(=O)[C@H](C)[C@@H]2OC(=O)O[C@]12C,inactive,inactive
C=CCOC(=O)O[C@H]1[C@H](C)O[C@@H](O[C@H]2[C@H](C)[C@@H](O[C@@H]3O[C@H](C)C[C@H]4[C@H]3OC(=O)N4C)[C@](C)(OC)C[C@@H](C)C(=O)[C@H](C)[C@@H]3OC(=O)O[C@]3(C)[C@@H](CC)OC(=O)[C@@H]2C)C[C@@]1(C)OC,inactive,inactive
CC[C@H]1OC(=O)[C@H](C)[C@@H](O)[C@H](C)[C@@H](O[C@@H]2O[C@H](C)C[C@H]3[C@H]2OC(=O)N3C)[C@](C)(OC)C[C@@H](C)C(=O)[C@H](C)[C@@H]2OC(=O)O[C@]12C,inactive,inactive
C=CCOC(=O)O[C@H]1[C@H](C)[C@@H](O[C@@H]2O[C@H](C)C[C@H]3[C@H]2OC(=O)N3C)[C@](C)(OC)C[C@@H](C)C(=O)[C@H](C)[C@@H]2OC(=O)O[C@]2(C)[C@@H](CC)OC(=O)[C@@H]1C,inactive,inactive
CC[C@H]1OC(=O)[C@H](C)[C@@H](O[C@H]2C[C@@](C)(OC)[C@@H](O)[C@H](C)O2)[C@H](C)[C@@H](O[C@@H]2O[C@H](C)C[C@H]3[C@H]2OC(=O)N3C)[C@](C)(OC)C[C@@H](C)C(=O)[C@H](C)[C@@H]2OC(=O)O[C@]12C,inactive,inactive
CC[C@H]1OC(=O)[C@H](C)[C@@H](O[C@H]2C[C@@](C)(OC)[C@@H](O)[C@H](C)O2)[C@H](C)[C@@H](O[C@@H]2O[C@H](C)C[C@H]3[C@H]2OC(=O)N3C)[C@](C)(OC)C[C@@H](C)C(=O)/C(C)=C/[C@]1(C)O,inactive,inactive
CC[C@H]1OC(=O)[C@H](C)C(=O)[C@H](C)[C@@H](O[C@@H]2O[C@H](C)C[C@H]3[C@H]2OC(=O)N3C)[C@](C)(OC)C[C@@H](C)C(=O)[C@H](C)[C@@H]2N(c3ccc(N4CCOCC4)c(F)c3)C(=O)O[C@@]21C,inactive,inactive
